Measured values as given in patent US20260200951A1, “NOVEL BORATE COMPOUND SOLUBLE IN ALIPHATIC HYDROCARBON SOLVENT” (AGC INC., priority 2023, published 2026).

Assays:
[1] = Evaluation of solubility (visual appearance of stored solutions in aliphatic hydrocarbon solvents); type: physicochemical; details: for solubility room temperature, 3 days: stored at room temperature for 3 days
Description: The symbols used to evaluate solubility in the Tables mean the following: • ◯: homogeneous transparent solution state • Δ: cloudy state • x: two-phase separation or crystallization

[2] = Evaluation of polymerization performance (ethylene/1-octene solution polymerization with CGC catalyst, compound as cocatalyst); details: CGC 3 μmol, catalyst:cocatalyst=1:1, TIBA 3000 μmol, 40 ml solvent (MCH), 1-octene 1 mL, ethylene 8 atm, 50° C., 6 min
Protocol: A general polymerization method using the compound of the present invention (compound (1-2)) as a cocatalyst is shown below.
Into 100 mL autoclave in a glove box were added 1-octene, triisobutylaluminum (TIBA, 1.00 M hexane solution) and a solvent (methylcyclohexane (MCH)) to prepare a comonomer solution. A polymerization catalyst (dimethylsilylene(tert-butylamide)-(tetramethylcyclopentadienyl)-titanium (IV)-dichloride (CGC)), triisobutylaluminum (1.00 M hexane solution), and a solvent were added to prepare a catalyst solution at a predetermined concentration, and the solution was transferred to a Schlenk tube. Compound (1-2) (cocatalyst) was dissolved in a solvent, and a cocatalyst solution at a predetermined concentration was prepared and transferred to the Schlenk tube. The comonomer solution, the catalyst solution, and the cocatalyst solution were mixed, and prepared such that the total amount of the solvent and the total amount of triisobutylaluminum would be constant. The inside of the autoclave was purged with ethylene gas, the catalyst solution and the cocatalyst solution were successively added to the autoclave, and the ethylene gas pressure was immediately adjusted to a predetermined pressure, and the mixture was stirred at 50° C. for 6 min. […]

[3] = 0.6 wt % (≈3 mM) borate compound/n-hexane solution, visual observation
[4] = 50 wt % borate compound/methylcyclohexane solution, visual observation
[5] = 50 wt % borate compound/methylcyclohexane solution, stored at −15° C. for 3 days, visual observation

| Compound | solubility room temperature, 3 days [1, 3] | solubility room temperature, 3 days [1, 4] | solubility −15° C., 3 days [1, 5] | solubility at 3 days ([1]; organic solvent or mixture, 0.6 wt % (≈3 mM) borate compound/n-hexane solution, stored at −15° C. for 3 days, visual observation) | solubility −15° C., 3 days ([1]; 0.6 wt % (≈3 mM) borate compound/n-hexane solution, stored at −15° C. for 3 days, visual observation) | solubility in aliphatic hydrocarbon solvents at low temperatures, in words ([1]; compared to Comparative Examples 1 to 5, summary of Tables 1 and 2) | ethylene-octene copolymer obtained [2] |
| --- | --- | --- | --- | --- | --- | --- | --- |
| CCCCCCCCCCCCCCCCN(CCCCCCCCCCCCCCCC)c1ccccc1 [Comparative Example 1, N,N-Dihexadecylanilinium tetrakis(pentafluorophenyl) borate] | ∘ | ∘ | ∘ | < 3000 µM |  |  |  |
| CCCCCCCCCCCCCCCCCC[NH+](CCCCCCCCCCCCCCCCCC)c1ccc(CCCC)cc1.Fc1c(F)c(F)c([B-](c2c(F)c(F)c(F)c(F)c2F)(c2c(F)c(F)c(F)c(F)c2F)c2c(F)c(F)c(F)c(F)c2F)c(F)c1F [Example 2, N,N-Dioctadecyl-4-butylanilinium tetrakis(pentafluorophenyl) borate] | ∘ | ∘ | ∘ |  | ∘ | remarkably high solubility | 47.3 mg |
